Laboratory results published in patent publication US9006450B2 (Boehringer Ingelheim International GmbH, priority 2010, dated 2015).

Biological target: T1, human ACC2 (Homo sapiens, UniProt O00763)
T1 construct: made in house; host or cells: insect cells (baculoviral expression system)
Experiment: ACC2 assay, spectrophotometric 384 well assay (NADH-linked, coupled lactate dehydrogenase/pyruvate kinase)
Type: biochemical
Details: ACC2 assay, hACC2 construct lacking 128 N-terminal amino acids, 25° C., 340 nm; read-out: IC50
Method in brief: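 Human ACC2 lacking N-terminal 128 aa, baculovirus/insect-cell expressed, anion-exchange purified; 100 mM Tris pH 7.5, 10 mM citrate, 25 mM KHCO3, 1% DMSO. Started with 200 μM NADH and acetyl-CoA plus 500 μM ATP; PK/LDH-coupled A340 decrease read 15 min at 25° C. IC50 by nonlinear fit of low-control-subtracted slopes.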

T1 sequence (O00763 129-2458 limits assumed): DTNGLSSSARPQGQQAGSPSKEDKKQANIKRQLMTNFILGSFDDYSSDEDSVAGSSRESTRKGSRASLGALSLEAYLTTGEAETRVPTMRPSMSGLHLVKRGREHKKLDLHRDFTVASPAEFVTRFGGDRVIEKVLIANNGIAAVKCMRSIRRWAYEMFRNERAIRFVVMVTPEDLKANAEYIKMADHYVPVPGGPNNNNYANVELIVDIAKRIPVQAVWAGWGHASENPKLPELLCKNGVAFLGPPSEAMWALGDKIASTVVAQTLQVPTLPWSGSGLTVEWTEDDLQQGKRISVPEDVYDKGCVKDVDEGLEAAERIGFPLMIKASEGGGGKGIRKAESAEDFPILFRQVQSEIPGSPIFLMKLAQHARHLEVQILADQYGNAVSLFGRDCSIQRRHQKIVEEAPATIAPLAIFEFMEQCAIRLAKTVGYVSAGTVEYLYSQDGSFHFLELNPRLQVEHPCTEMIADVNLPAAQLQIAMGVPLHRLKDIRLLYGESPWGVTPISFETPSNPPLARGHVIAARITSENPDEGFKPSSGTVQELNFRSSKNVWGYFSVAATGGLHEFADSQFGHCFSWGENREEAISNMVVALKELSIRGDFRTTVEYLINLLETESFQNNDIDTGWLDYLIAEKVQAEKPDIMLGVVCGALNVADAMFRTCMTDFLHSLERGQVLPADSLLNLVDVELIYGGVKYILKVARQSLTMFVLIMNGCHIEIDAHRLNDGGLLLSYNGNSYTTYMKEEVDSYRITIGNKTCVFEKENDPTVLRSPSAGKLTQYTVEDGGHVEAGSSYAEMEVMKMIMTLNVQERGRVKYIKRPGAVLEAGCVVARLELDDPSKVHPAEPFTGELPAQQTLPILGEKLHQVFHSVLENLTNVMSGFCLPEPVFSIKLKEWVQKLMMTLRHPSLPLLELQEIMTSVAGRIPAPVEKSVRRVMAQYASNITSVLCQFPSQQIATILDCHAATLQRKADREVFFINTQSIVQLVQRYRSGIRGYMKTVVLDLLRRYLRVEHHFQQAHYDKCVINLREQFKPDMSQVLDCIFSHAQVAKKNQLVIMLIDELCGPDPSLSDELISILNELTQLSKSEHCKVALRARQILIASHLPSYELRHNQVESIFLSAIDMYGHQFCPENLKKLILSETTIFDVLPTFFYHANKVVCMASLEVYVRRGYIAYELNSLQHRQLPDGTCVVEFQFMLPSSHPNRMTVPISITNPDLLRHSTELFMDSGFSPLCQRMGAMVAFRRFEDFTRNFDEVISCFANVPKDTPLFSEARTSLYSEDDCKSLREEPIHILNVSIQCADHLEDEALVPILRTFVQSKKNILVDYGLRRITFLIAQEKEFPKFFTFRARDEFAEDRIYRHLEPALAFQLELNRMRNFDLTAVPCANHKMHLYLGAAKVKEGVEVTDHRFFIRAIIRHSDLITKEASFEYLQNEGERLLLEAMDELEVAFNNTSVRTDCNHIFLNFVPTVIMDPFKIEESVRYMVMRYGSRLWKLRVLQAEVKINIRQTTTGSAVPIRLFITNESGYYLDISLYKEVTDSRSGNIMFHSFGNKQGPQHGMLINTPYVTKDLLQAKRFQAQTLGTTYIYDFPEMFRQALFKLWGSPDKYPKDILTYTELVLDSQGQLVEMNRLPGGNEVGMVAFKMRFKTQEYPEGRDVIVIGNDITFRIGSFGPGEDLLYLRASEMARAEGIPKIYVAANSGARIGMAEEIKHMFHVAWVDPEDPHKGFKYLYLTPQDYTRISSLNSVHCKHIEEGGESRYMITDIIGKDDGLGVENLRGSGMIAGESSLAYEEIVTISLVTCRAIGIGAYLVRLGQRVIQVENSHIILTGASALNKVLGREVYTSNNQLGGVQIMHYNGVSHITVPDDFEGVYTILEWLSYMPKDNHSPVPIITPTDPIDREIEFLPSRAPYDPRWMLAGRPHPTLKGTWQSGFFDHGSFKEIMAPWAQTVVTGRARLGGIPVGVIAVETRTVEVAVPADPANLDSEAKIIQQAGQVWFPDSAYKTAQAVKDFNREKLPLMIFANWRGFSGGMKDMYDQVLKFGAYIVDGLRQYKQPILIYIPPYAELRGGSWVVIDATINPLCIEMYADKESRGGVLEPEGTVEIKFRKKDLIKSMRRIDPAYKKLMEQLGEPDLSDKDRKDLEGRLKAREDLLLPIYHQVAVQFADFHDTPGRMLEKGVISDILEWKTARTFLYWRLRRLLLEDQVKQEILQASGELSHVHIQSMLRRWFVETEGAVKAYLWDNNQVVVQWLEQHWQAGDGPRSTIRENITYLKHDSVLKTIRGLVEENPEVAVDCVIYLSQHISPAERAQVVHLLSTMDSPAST

Question: With `CCOc1ccc(N2CCC(c3ccc([C@H](C)NC(=O)CC(=O)O)cc3)CC2)cc1` [Example 32.1, (S)-3-(1-(4-(1-(4-Ethoxyphenyl)piperidin-4-yl)phenyl)ethylamino)-3-oxopropanoic Acid] as the molecule, how does the IC50 read?
Answer: 7.2 µM

Question: Which IC50 does the source give for `CCOc1ccc(N2CCC(c3ccc([C@H](C)NC(=O)CC(N)=O)cc3)CC2)cc1` [Example 33.1, (S)—N-(1-{4-[1-(4-Ethoxyphenyl)piperidin-4-yl]phenyl}ethyl)malonamide] here?
Answer: 1.7 µM

Question: For `CCOc1ccc(N2CCC(c3ccc([C@H](C)NC(=O)CC(=O)NC)cc3)CC2)cc1` [Example 33.2], which IC50 is on record?
Answer: 8.9 µM

Question: `CC(=O)N[C@@H](C)c1ccc(C2CCN(c3cnc(-c4ccccn4)s3)CC2)cc1` [Example 34.1, (S)—N-(1-(4-(1-(2-(Pyridin-2-yl)thiazol-5-yl)piperidin-4-yl)phenyl)ethyl)acetamide] was tested. Which IC50 did it give?
Answer: 0.42 µM

Question: How did the IC50 turn out when `CC(=O)N[C@@H](C)c1ccc(C2CCN(c3csc(-c4ccc(C(F)(F)F)cn4)n3)CC2)cc1` [Example 34.2] was run?
Answer: 0.04 µM

Question: With `CCOc1ccc(N2CCC(c3ccc([C@H](C)NC(=O)CN)cc3)CC2)cc1` [Example 35.1, (S)-2-Amino-N-(1-{4-[1-(4-ethoxyphenyl)piperidin-4-yl]phenyl}ethyl)acetamide] as the molecule, how does the IC50 read?
Answer: 5.4 µM

Question: How did the IC50 turn out when `CCOc1ccc(N2CCC(c3ccc([C@H](C)NC(=O)CN(C)C)cc3)CC2)cc1` [Example 36.1, (S)-2-(Dimethylamino)-N-(1-{4-[1-(4-ethoxyphenyl)piperidin-4-yl]phenyl}ethyl)acetamide] was run?
Answer: 1.6 µM

Question: For `CCOc1ccc(N2CCC(c3ccc([C@H](C)NC(C)=O)cc3)CC2)c(C(N)=O)c1` [Example 37.1, (S)-2-(4-(4-(1-Acetamidoethyl)phenyl)piperidin-1-yl)-5-ethoxybenzamide], which IC50 is on record?
Answer: 23.1 µM

Question: Which IC50 does the source give for `CCOc1ccc(N2CCC(c3ccc([C@H](C)NC(C)=S)cc3)CC2)cc1` [Example 38.1, (S)-N-(1-(4-(1-(4-Ethoxyphenyl)piperidin-4-yl)phenyl)ethyl)ethanethioamide] here?
Answer: 0.43 µM

Question: Which IC50 does the source give for `CCOc1ccc(N2CCC(c3ccc([C@H](C)NC(C)=S)cc3)CC2)c(F)c1` [Example 38.2] here?
Answer: 0.29 µM

Question: Which IC50 does the source give for `CC(=O)N(C)[C@@H](C)c1ccc(C2CCN(c3ccc(OCC4CC4)cc3)CC2)cc1` [Example 39.1, (S)—N-(1-(4-(1-(4-Cyclopropylmethoxyphenyl)piperidin-4-yl)phenyl)ethyl)-N-methylacetamide] here?
Answer: 12 µM

Question: For `CCN(C(C)=O)[C@@H](C)c1ccc(C2CCN(c3ccc(OCC4CC4)cc3)CC2)cc1` [Example 39.2], which IC50 is on record?
Answer: 1.5 µM

Question: `CCCOc1ccc(N2CCC(c3ccc([C@H](C)NC(=O)C(F)(F)F)cc3)CC2)c(OC)c1` [Example 40.1, (S)-2,2,2-Trifluoro-N-{1-[4-(1-(2-methoxy-4-propoxyphenyl)piperidin-4-yl)phenyl]-ethyl}acetamide] was tested. Which IC50 did it give?
Answer: 0.29 µM

Question: `CCOc1ccc(N2CCC(c3ccc([C@H](C)NC(=O)C(F)(F)F)cc3)CC2)cc1` [Example 40.2] was tested. Which IC50 did it give?
Answer: 0.08 µM
